Source: patent US20260262643A1, “HERBICIDAL BENZOXAZINES” (FMC CORPORATION, priority 2022, published 2026)

Columns and labels:
kochia [1] = experiment: Test C postemergence; format: in vivo, Bassia scoparia; conditions: 10 days, 0 to 100 scale (0 no effect, 100 complete control)
Summary of the method: (§1)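 Visual injury score, 0–100 (100 = complete control), taken 10 days after treatment relative to untreated controls. Pre: directed spray onto soil over sown seeds. Post: foliar spray at one- to two-leaf stage, 2–10 cm. Solvent/surfactant formulation; loam–sand soil; greenhouse.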

sedge, umbrella = experiment: Test D flooded paddy test; format: in vivo, Cyperus difformis; conditions: 250 g ai/ha, applied to paddy water, visual rating after 13 to 14 days, scale 0 to 100 (0 no effect, 100 complete control)
Summary of the method: (§2)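 Post-flood water application at the 2-leaf stage; 3 cm flood depth kept constant; visual control rating 0–100 after 13–14 days greenhouse growth.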

oat, wild [2] = experiment: Test C preemergence; format: in vivo, Avena fatua
Summary of the method: as §1

ragweed [3] = experiment: Test C preemergence; format: in vivo, Ambrosia artemisiifolia
Summary of the method: as §1

blackgrass [4] = experiment: Test C preemergence; format: in vivo, Alopecurus myosuroides
Summary of the method: as §1

pigweed, palmer [5] = experiment: Test C preemergence; format: in vivo, Amaranthus palmeri
Summary of the method: as §1

ducksalad = experiment: Test D flooded paddy test; format: in vivo, Heteranthera limosa; conditions: 250 g ai/ha, applied to paddy water, visual rating after 13 to 14 days, scale 0 to 100 (0 no effect, 100 complete control)
Summary of the method: as §2

green foxtail [6] = experiment: Test C postemergence; format: in vivo, Setaria viridis; conditions: 10 days, 0 to 100 scale (0 no effect, 100 complete control)
Summary of the method: as §1

kochia [7] = experiment: Test C preemergence; format: in vivo, Bassia scoparia
Summary of the method: as §1

pigweed, palmer [8] = experiment: Test C postemergence; format: in vivo, Amaranthus palmeri; conditions: 10 days, 0 to 100 scale (0 no effect, 100 complete control)
Summary of the method: as §1

corn [9] = experiment: Test C preemergence; format: in vivo, Zea mays
Summary of the method: as §1

corn [10] = experiment: Test C postemergence; format: in vivo, Zea mays; conditions: 10 days, 0 to 100 scale (0 no effect, 100 complete control)
Summary of the method: as §1

wheat [11] = experiment: Test C preemergence; format: in vivo, Triticum aestivum
Summary of the method: as §1

barnyardgrass [12] = experiment: Test C postemergence; format: in vivo, Echinochloa crusgalli; conditions: 10 days, 0 to 100 scale (0 no effect, 100 complete control)
Summary of the method: as §1

blackgrass [13] = experiment: Test C postemergence; format: in vivo, Alopecurus myosuroides; conditions: 10 days, 0 to 100 scale (0 no effect, 100 complete control)
Summary of the method: as §1

ryegrass, Italian [14] = experiment: Test C postemergence; format: in vivo, Lolium multiflorum; conditions: 10 days, 0 to 100 scale (0 no effect, 100 complete control)
Summary of the method: as §1

soybean [15] = experiment: Test C postemergence; format: in vivo, Glycine max; conditions: 10 days, 0 to 100 scale (0 no effect, 100 complete control)
Summary of the method: as §1

barnyardgrass [16] = experiment: Test C preemergence; format: in vivo, Echinochloa crusgalli
Summary of the method: as §1

ryegrass, Italian [17] = experiment: Test C preemergence; format: in vivo, Lolium multiflorum
Summary of the method: as §1

rice = experiment: Test D flooded paddy test; format: in vivo, Oryza sativa; conditions: 250 g ai/ha, applied to paddy water, visual rating after 13 to 14 days, scale 0 to 100 (0 no effect, 100 complete control)
Summary of the method: as §2

ragweed [18] = experiment: Test C postemergence; format: in vivo, Ambrosia artemisiifolia; conditions: 10 days, 0 to 100 scale (0 no effect, 100 complete control)
Summary of the method: as §1

soybean [19] = experiment: Test C preemergence; format: in vivo, Glycine max
Summary of the method: as §1

horseweed = experiment: Test C postemergence; format: in vivo, Erigeron canadensis; conditions: 10 days, 0 to 100 scale (0 no effect, 100 complete control)
Summary of the method: as §1

oat, wild [20] = experiment: Test C postemergence; format: in vivo, Avena fatua; conditions: 10 days, 0 to 100 scale (0 no effect, 100 complete control)
Summary of the method: as §1

green foxtail [21] = experiment: Test C preemergence; format: in vivo, Setaria viridis
Summary of the method: as §1

barnyardgrass [22] = experiment: Test D flooded paddy test; format: in vivo, Echinochloa crus-galli; conditions: 250 g ai/ha, applied to paddy water, visual rating after 13 to 14 days, scale 0 to 100 (0 no effect, 100 complete control)
Summary of the method: as §2

wheat [23] = experiment: Test C postemergence; format: in vivo, Triticum aestivum; conditions: 10 days, 0 to 100 scale (0 no effect, 100 complete control)
Summary of the method: as §1

galium = experiment: Test C postemergence; format: in vivo, Galium aparine; conditions: 10 days, 0 to 100 scale (0 no effect, 100 complete control)
Summary of the method: as §1

[24] = 500 g ai/ha, preemergence, 0 to 100 scale (0 no effect, 100 complete control)
[25] = Preemergence, 125 g ai/ha, 0 to 100 scale, 0 no effect, 100 complete control

CC(C)(C)c1ncn(-c2cccc(C(=O)N3CC(C(F)(F)F)Oc4c(Cl)cccc43)c2)n1 (stereo not shown) [Compound 353]
0: Plant response rating, Sedge, Umbrella (Flood) (sedge, umbrella) | Ragweed plant response rating (ragweed [3]; [24]) | Plant response rating, Ragweed (ragweed [3]; [25]) | Plant response rating, Blackgrass (blackgrass [4]; [25]) | Plant response rating, Ducksalad (Flood) (ducksalad) | Plant response rating, Kochia (kochia [7]; [25]) | Plant response rating, Blackgrass (blackgrass [13]; Postemergence, 125 g ai/ha) | Plant response rating, Rice (Flood) (rice) | Plant response rating, Horseweed (horseweed; 500 g ai/ha, postemergence) | Plant response rating, Oat, Wild (oat, wild [20]; 500 g ai/ha, postemergence) | Plant response rating, Oat, Wild (oat, wild [20]; Postemergence, 125 g ai/ha) | Plant response rating, Barnyardgrass (Flood) (barnyardgrass [22])
90: Plant response rating, Pigweed, Palmer (pigweed, palmer [5]; [25]) | Plant response rating, Pigweed, Palmer (pigweed, palmer [8]; Postemergence, 125 g ai/ha) | Ryegrass, Italian plant response rating (ryegrass, Italian [17]; [24]) | Plant response rating, Foxtail, Green (green foxtail [21]; [25]) | Plant response rating, Galium (galium; 500 g ai/ha, postemergence)
60: Plant response rating, Kochia (kochia [1]; Postemergence, 125 g ai/ha) | Plant response rating, Ragweed (ragweed [18]; 500 g ai/ha, postemergence)
10: Corn plant response rating (corn [9]; [24]) | Plant response rating, Corn (corn [9]; [25]) | Plant response rating, Corn (corn [10]; 500 g ai/ha, postemergence) | Plant response rating, Corn (corn [10]; Postemergence, 125 g ai/ha) | Plant response rating, Wheat (wheat [11]; [25]) | Plant response rating, Barnyardgrass (barnyardgrass [12]; Postemergence, 125 g ai/ha)
100: Pigweed, Palmer plant response rating (pigweed, palmer [5]; [24]) | Plant response rating, Pigweed, Palmer (pigweed, palmer [8]; 500 g ai/ha, postemergence) | Foxtail, Green plant response rating (green foxtail [21]; [24])
30: Plant response rating, Oat, Wild (oat, wild [2]; [25]) | Wheat plant response rating (wheat [11]; [24]) | Plant response rating, Barnyardgrass (barnyardgrass [12]; 500 g ai/ha, postemergence) | Plant response rating, Blackgrass (blackgrass [13]; 500 g ai/ha, postemergence)
40: Plant response rating, Foxtail, Green (green foxtail [6]; 500 g ai/ha, postemergence) | Plant response rating, Ryegrass, Italian (ryegrass, Italian [14]; 500 g ai/ha, postemergence) | Soybean plant response rating (soybean [19]; [24])
80: Oat, Wild plant response rating (oat, wild [2]; [24]) | Plant response rating, Soybean (soybean [15]; 500 g ai/ha, postemergence) | Plant response rating, Soybean (soybean [15]; Postemergence, 125 g ai/ha) | Plant response rating, Ryegrass, Italian (ryegrass, Italian [17]; [25])
70: Plant response rating, Kochia (kochia [1]; 500 g ai/ha, postemergence) | Kochia plant response rating (kochia [7]; [24]) | Barnyardgrass plant response rating (barnyardgrass [16]; [24]) | Plant response rating, Galium (galium; Postemergence, 125 g ai/ha)
20: Plant response rating, Foxtail, Green (green foxtail [6]; Postemergence, 125 g ai/ha) | Plant response rating, Ryegrass, Italian (ryegrass, Italian [14]; Postemergence, 125 g ai/ha) | Plant response rating, Barnyardgrass (barnyardgrass [16]; [25]) | Plant response rating, Soybean (soybean [19]; [25]) | Plant response rating, Horseweed (horseweed; Postemergence, 125 g ai/ha) | Plant response rating, Wheat (wheat [23]; 500 g ai/ha, postemergence) | Plant response rating, Wheat (wheat [23]; Postemergence, 125 g ai/ha)
50: Blackgrass plant response rating (blackgrass [4]; [24]) | Plant response rating, Ragweed (ragweed [18]; Postemergence, 125 g ai/ha)
